Measurements: patent US9833497B2, “Human originated EGF domain proteins and use of the same” (CHENGDU SOURCEBIO LIMITED-LIABILITY COMPANY, priority 2013, dated 2017)

Key:
Type in all cases: cell-based
E. coli BL21 = experiment: MIC against Gram-negative bacteria: E. coli BL21
Outline: (§1)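 Two-fold serial dilutions of each purified human EGF domain protein, three replicate wells per level, were combined with bacteria at a final 5×10^5 CFU/mL in LB. Cultures were shaken at 175 rpm, 37° C. The MIC was taken as the minimum concentration preventing growth.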

Proteus vulgaris = experiment: MIC against Gram-negative bacteria: Proteus vulgaris
Outline: as §1

Enterobacter cloacae = experiment: MIC against Gram-negative bacteria: Enterobacter cloacae
Outline: as §1

Proteus mirabilis = experiment: MIC against Gram-negative bacteria: Proteus mirabilis
Outline: as §1

Serratia marcescens = experiment: MIC against Gram-negative bacteria: Serratia marcescens
Outline: as §1

E. coli DH5α = experiment: Antibacterial activity: MIC and growth curve against E. coli DH5α in 96-well plate; conditions: minimal inhibitory concentration against E. coli DH5α; 96-well plate, 5×10^5 CFU/mL, 37° C., judged after 8 h
Outline: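 Log-phase DH5α (OD600 about 0.5, 37° C, 185 rpm in LB) was pelleted, resuspended in fresh LB and seeded at 5×10^5 CFU/mL with recombinant protein at 50, 25 and 12.5 μg/mL (two-fold series), in triplicate. Plates were shaken at 175 rpm, 37° C, and OD600 was read every 30 min. MIC was the lowest concentration with no growth.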

Pseudomonas aeruginosa = experiment: MIC against Gram-negative bacteria: Pseudomonas aeruginosa
Outline: as §1

Aeromonas hydrophila = experiment: MIC against Gram-negative bacteria: Aeromonas hydrophila
Outline: as §1

Citrobacter diversus = experiment: MIC against Gram-negative bacteria: Citrobacter diversus
Outline: as §1

Klebsiella pneumonia = experiment: MIC against Gram-negative bacteria: Klebsiella pneumonia
Outline: as §1

Moraxella catarrhalis = experiment: MIC against Gram-negative bacteria: Moraxella catarrhalis
Outline: as §1

[1] = 96-well plate, 5×10^5 CFU/mL, 37° C., 10 h
[2] = E. coli BL21, 10 h cultivation at 37° C., 5×10^5 CFU/mL
[3] = P. vulgaris, 10 h cultivation at 37° C., 5×10^5 CFU/mL
[4] = E. cloacae, 10 h cultivation at 37° C., 5×10^5 CFU/mL
[5] = P. mirabilis, 10 h cultivation at 37° C., 5×10^5 CFU/mL
[6] = S. marcescens, 10 h cultivation at 37° C., 5×10^5 CFU/mL
[7] = P. aeruginosa, 10 h cultivation at 37° C., 5×10^5 CFU/mL
[8] = A. hydrophila, 10 h cultivation at 37° C., 5×10^5 CFU/mL
[9] = C. diversus, 10 h cultivation at 37° C., 5×10^5 CFU/mL
[10] = K. pneumonia, 10 h cultivation at 37° C., 5×10^5 CFU/mL
[11] = M. catarrhalis, 10 h cultivation at 37° C., 5×10^5 CFU/mL
[12] = E. coli BL21, 96-well plate, 5×10^5 CFU/mL, 37° C., 10 h
[13] = Proteus vulgaris, 96-well plate, 5×10^5 CFU/mL, 37° C., 10 h
[14] = Enterobacter cloacae, 96-well plate, 5×10^5 CFU/mL, 37° C., 10 h
[15] = Proteus mirabilis, 96-well plate, 5×10^5 CFU/mL, 37° C., 10 h
[16] = Serratia marcescens, 96-well plate, 5×10^5 CFU/mL, 37° C., 10 h
[17] = Pseudomonas aeruginosa, 96-well plate, 5×10^5 CFU/mL, 37° C., 10 h
[18] = Aeromonas hydrophila, 96-well plate, 5×10^5 CFU/mL, 37° C., 10 h
[19] = Citrobacter diversus, 96-well plate, 5×10^5 CFU/mL, 37° C., 10 h
[20] = Klebsiella pneumonia, 96-well plate, 5×10^5 CFU/mL, 37° C., 10 h
[21] = Moraxella catarrhalis, 96-well plate, 5×10^5 CFU/mL, 37° C., 10 h

PRT710 (DQDECAVYGTCSQTCRNTHGSYTCSCVEGYLMQPDNRSCK; listed as Homo sapiens)
12.5 µg/mL: MIC E. coli BL21 (E. coli BL21; [1]) | MIC P. mirabilis (Proteus mirabilis; [1]) | MIC A. hydrophila (Aeromonas hydrophila; [1]) | MIC K. pneumonia (Klebsiella pneumonia; [1])
25 µg/mL: MIC P. vulgaris (Proteus vulgaris; [1]) | MIC (E. coli DH5α) | MIC M. catarrhalis (Moraxella catarrhalis; [1])
50 µg/mL: MIC E. cloacae (Enterobacter cloacae; [1]) | MIC S. marcescens (Serratia marcescens; [1]) | MIC P. aeruginosa (Pseudomonas aeruginosa; [1]) | MIC C. diversus (Citrobacter diversus; [1])

PRT597 (CDCNRAGTQKPICDPDTGMCRCREGVSGQRCDRCARGHSQEFPTCLQ; listed as Homo sapiens)
50 µg/mL: MIC P. mirabilis (Proteus mirabilis; [1]) | MIC P. aeruginosa (Pseudomonas aeruginosa; [1]) | MIC A. hydrophila (Aeromonas hydrophila; [1])
25 µg/mL: MIC P. vulgaris (Proteus vulgaris; [1]) | MIC E. cloacae (Enterobacter cloacae; [1]) | MIC (E. coli DH5α) | MIC C. diversus (Citrobacter diversus; [1])
12.5 µg/mL: MIC E. coli BL21 (E. coli BL21; [1]) | MIC S. marcescens (Serratia marcescens; [1]) | MIC K. pneumonia (Klebsiella pneumonia; [1]) | MIC M. catarrhalis (Moraxella catarrhalis; [1])

PRT812 (YGKHCRKKCNCANRGRCHRLYGACLCDPGLYGRFCH; listed as Homo sapiens)
12.5 µg/mL: MIC (μg/mL) E. coli BL21 (E. coli BL21; [2]) | MIC (μg/mL) P. mirabilis (Proteus mirabilis; [5]) | MIC (μg/mL) S. marcescens (Serratia marcescens; [6]) | MIC (E. coli DH5α) | MIC (μg/mL) P. aeruginosa (Pseudomonas aeruginosa; [7]) | MIC (μg/mL) C. diversus (Citrobacter diversus; [9])
25 µg/mL: MIC (μg/mL) A. hydrophila (Aeromonas hydrophila; [8]) | MIC (μg/mL) K. pneumonia (Klebsiella pneumonia; [10])
50 µg/mL: MIC (μg/mL) P. vulgaris (Proteus vulgaris; [3]) | MIC (μg/mL) E. cloacae (Enterobacter cloacae; [4]) | MIC (μg/mL) M. catarrhalis (Moraxella catarrhalis; [11])

PRT929 (QIDECYSSPCLNDGRCIDLVNGYQCNCQPGTSGVNCE; listed as Homo sapiens)
100 µg/mL: MIC (E. coli DH5α)
50 µg/mL: MIC (Proteus vulgaris; P. vulgaris, 10 h cultivation at 37° C.) | MIC (Enterobacter cloacae; E. cloacae, 10 h cultivation at 37° C.) | MIC (Moraxella catarrhalis; M. catarrhalis, 10 h cultivation at 37° C.)
12.5 µg/mL: MIC (Proteus mirabilis; P. mirabilis, 10 h cultivation at 37° C.) | MIC (Serratia marcescens; S. marcescens, 10 h cultivation at 37° C.) | MIC (Pseudomonas aeruginosa; P. aeruginosa, 10 h cultivation at 37° C.) | MIC (Citrobacter diversus; C. diversus, 10 h cultivation at 37° C.)
25 µg/mL: MIC (E. coli BL21; E. coli BL21, 10 h cultivation at 37° C.) | MIC (Aeromonas hydrophila; A. hydrophila, 10 h cultivation at 37° C.) | MIC (Klebsiella pneumonia; K. pneumonia, 10 h cultivation at 37° C.)

PRT201 (NMSSCPLDSKGKVCSGHGVCSNEATCICDFTWAGTDCS; listed as Homo sapiens)
12.5 µg/mL: MIC (μg/mL) E. coli BL21 (E. coli BL21; [2]) | MIC (μg/mL) A. hydrophila (Aeromonas hydrophila; [8]) | MIC (μg/mL) K. pneumonia (Klebsiella pneumonia; [10]) | MIC (μg/mL) M. catarrhalis (Moraxella catarrhalis; [11])
25 µg/mL: MIC (μg/mL) P. mirabilis (Proteus mirabilis; [5]) | MIC (μg/mL) S. marcescens (Serratia marcescens; [6])
50 µg/mL: MIC (μg/mL) P. vulgaris (Proteus vulgaris; [3]) | MIC (μg/mL) E. cloacae (Enterobacter cloacae; [4]) | MIC (E. coli DH5α) | MIC (μg/mL) P. aeruginosa (Pseudomonas aeruginosa; [7]) | MIC (μg/mL) C. diversus (Citrobacter diversus; [9])

PRT179 (RVDRCSLQPCRNGGLCLDLGHALRCRCRAGFAGPRCE; listed as Homo sapiens)
25 µg/mL: MIC (μg/mL) E. coli BL21 (E. coli BL21; [2]) | MIC (μg/mL) P. mirabilis (Proteus mirabilis; [5]) | MIC (μg/mL) C. diversus (Citrobacter diversus; [9]) | MIC (μg/mL) K. pneumonia (Klebsiella pneumonia; [10])
12.5 µg/mL: MIC (μg/mL) P. vulgaris (Proteus vulgaris; [3]) | MIC (μg/mL) S. marcescens (Serratia marcescens; [6]) | MIC (μg/mL) P. aeruginosa (Pseudomonas aeruginosa; [7]) | MIC (μg/mL) A. hydrophila (Aeromonas hydrophila; [8]) | MIC (μg/mL) M. catarrhalis (Moraxella catarrhalis; [11])
50 µg/mL: MIC (μg/mL) E. cloacae (Enterobacter cloacae; [4]) | MIC (E. coli DH5α)

PRT436 (DINECEHRNHTCNLQQTCYNLQGGFKCIDPIRCEEPYLRISDNRCM; listed as Homo sapiens)
25 µg/mL: MIC (E. coli BL21; [2]) | MIC (Klebsiella pneumonia; [10])
100 µg/mL: MIC (Serratia marcescens; [6])
12.5 µg/mL: MIC (Enterobacter cloacae; [4]) | MIC (Proteus mirabilis; [5]) | MIC (E. coli DH5α) | MIC (Citrobacter diversus; [9])
50 µg/mL: MIC (Proteus vulgaris; [3]) | MIC (Pseudomonas aeruginosa; [7]) | MIC (Aeromonas hydrophila; [8]) | MIC (Moraxella catarrhalis; [11])

PRT1252 (CPLTCDDISGQVTCPPDWPCGSPGCWCPEGQVLGSEGWCV; listed as Homo sapiens)
12.5 µg/mL: MIC against S. marcescens (Serratia marcescens; [16]) | MIC (E. coli DH5α) | MIC against C. diversus (Citrobacter diversus; [19]) | MIC against K. pneumonia (Klebsiella pneumonia; [20])
50 µg/mL: MIC against E. coli BL21 (E. coli BL21; [12]) | MIC against P. mirabilis (Proteus mirabilis; [15]) | MIC against A. hydrophila (Aeromonas hydrophila; [18])
25 µg/mL: MIC against P. vulgaris (Proteus vulgaris; [13]) | MIC against E. cloacae (Enterobacter cloacae; [14]) | MIC against P. aeruginosa (Pseudomonas aeruginosa; [17]) | MIC against M. catarrhalis (Moraxella catarrhalis; [21])

PRT648 (DIDECLNPSTCPDEQCVNSPGSYQCVPCTEGFRGWNGQCL; listed as Homo sapiens)
50 µg/mL: MIC P. vulgaris (Proteus vulgaris; [1]) | MIC P. aeruginosa (Pseudomonas aeruginosa; [1]) | MIC A. hydrophila (Aeromonas hydrophila; [1]) | MIC M. catarrhalis (Moraxella catarrhalis; [1])
12.5 µg/mL: MIC E. cloacae (Enterobacter cloacae; [1]) | MIC P. mirabilis (Proteus mirabilis; [1]) | MIC S. marcescens (Serratia marcescens; [1]) | MIC (E. coli DH5α) | MIC C. diversus (Citrobacter diversus; [1])
25 µg/mL: MIC E. coli BL21 (E. coli BL21; [1]) | MIC K. pneumonia (Klebsiella pneumonia; [1])

PRT714 (HINECLSKKVSGCSQDCQDLPVSYKCKCWPGFQLKDDGKTCV; listed as Homo sapiens)
50 µg/mL: MIC P. vulgaris (Proteus vulgaris; [1]) | MIC A. hydrophila (Aeromonas hydrophila; [1]) | MIC M. catarrhalis (Moraxella catarrhalis; [1])
12.5 µg/mL: MIC E. cloacae (Enterobacter cloacae; [1]) | MIC P. mirabilis (Proteus mirabilis; [1]) | MIC S. marcescens (Serratia marcescens; [1]) | MIC (E. coli DH5α) | MIC P. aeruginosa (Pseudomonas aeruginosa; [1]) | MIC C. diversus (Citrobacter diversus; [1]) | MIC K. pneumonia (Klebsiella pneumonia; [1])
25 µg/mL: MIC E. coli BL21 (E. coli BL21; [1])

PRT143 (PRNPCRMSCQNHGRLNISTCHCHCPPGYTGRYCQ; listed as Homo sapiens)
25 µg/mL: MIC (μg/mL) P. mirabilis (Proteus mirabilis; [15]) | MIC (μg/mL) S. marcescens (Serratia marcescens; [16])
12.5 µg/mL: MIC (μg/mL) E. coli BL21 (E. coli BL21; [12]) | MIC (μg/mL) P. vulgaris (Proteus vulgaris; [13]) | MIC (μg/mL) E. cloacae (Enterobacter cloacae; [14]) | MIC (E. coli DH5α) | MIC (μg/mL) P. aeruginosa (Pseudomonas aeruginosa; [17]) | MIC (μg/mL) A. hydrophila (Aeromonas hydrophila; [18]) | MIC (μg/mL) C. diversus (Citrobacter diversus; [19]) | MIC (μg/mL) K. pneumonia (Klebsiella pneumonia; [20])
50 µg/mL: MIC (μg/mL) M. catarrhalis (Moraxella catarrhalis; [21])
